In patent US9687490B2, “Triazine derivatives for the treatment of conditions associated with nicotinamide adenine dinucleotide phosphate oxidase” (GLUCOX BIOTECH AB, priority 2012, dated 2017):
Several values for one entry are separate records, joined by “and”; a condition that tells them apart may be missing. Equal values may be shown once.

System: stroke induced mice
Assay: Stroke animal model: transient middle cerebral artery occlusion (tMCAO), infarct size by TTC staining
Format: in vivo
Details: individual animals, 3.2 mg/kg i.p. at 2 h and 12 h, 1 h occlusion, 23 h reperfusion, C57Bl6 mice
Experimental: Mice (10-12 wk), wild type C57BI6, 6 animals, were used:
Test (n=3) stroke induced mouse treated i.p. with inventive compound M4 (N^2-(3,4-dimethylphenyl)-6-((4-(3-methoxyphenyl)piperazin-1-yl)methyl)-1,3,5-triazine-2,4-diamine).
M4 preparation for intra peritoneal i.p. administration: 3.5 mg of M4 were first dissolved in 1 ml of DMSO. After the substance was totally dissolved, 5 ml of 20% Cremophor ELP in PBS (phosphate buffered saline solution) was added. Thereafter an additional 4 ml of PBS was added. The 20% Cremophor ELP solution was prepared by dissolving 10.5 g of Cremophor in 50 ml of PBS.
Injection volume of M4: The dose was 3.2 mg/kg, calculated for each animal at each event of administration (2 h and 12 h).
• 1. Transient middle cerebral artery occlusion (tMCAO) by blocking with a filament for 1 h. • 2. Reperfusion after 1 h by removing filament • 3. Injection of M4 by i.p. after 2 h and repeated injection i.p. after 12 h • 4. Sacrifice the animal after 24 h and infarct size is determined by triphenyl tetrazolium chloride (TTC) staining—Thus the procedure of middle cerebral artery occlusion (MCAO); 1 h occlusion and 23 h reperfusion. • 5. […]
Mice were killed 24 hours after tMCAO. […] The occurrence of Intra Cerebral Hemorrhage (ICH) was macroscopically assessed on whole brains and again after the 2-mm-thick coronal brain slices were cut (see above) before TTC staining. […]

With `COc1cccc(N2CCN(Cc3nc(N)nc(Nc4ccc(C)c(C)c4)n3)CC2)c1` [M4, N^2-(3,4-dimethylphenyl)-6-((4-(3-methoxyphenyl)piperazin-1-yl)methyl)-1,3,5-triazine-2,4-diamine] the Infarct volume was 73 mm^3 and 145 mm^3 and 134 mm^3.
